Assay results published in patent publication US4210660A, “Benzamide derivatives” (Yamanouchi Pharmaceutical Co., Ltd., priority 1978, dated 1980).
Like-named read-outs stand apart in the source and are kept apart here.

System: apomorphine-induced stereotyped behavior
Test: Activity in reducing apomorphine-induced stereotyped behavior (method of Janssen et al.)
Format: in vivo, rats (male, Wistar)
Conditions: sc
From the text: In the following Experiment I, the compounds of this invention were compared with chlorpromazine which is a typical antipsychotic and other known structurally similar compounds in their activity in reducing apomorphine-induced stereotyped behavior.

[1] = test sample subcutaneous to rat, after 30 minutes 1.25 mg/kg apomorphine intravenously, observed 5, 10 and 20 minutes later, read-out: ED50

Row | SMILES | ED50 (Rattus norvegicus) | ED50 [1]
1 | CN(C)CCCN1c2ccccc2Sc2ccc(Cl)cc21 [Chlorpromazine] | 2.5 mg/kg | –
2 | CNc1cc(OC)c(C(=O)NC2CCN(Cc3ccccc3)C2C)cc1Cl (stereo not shown) [Example 3, N-(1-benzyl-2-methylpyrrolidin-3-yl)-5-chloro-2-methoxy-4-methylaminobenzamide] | – | 0.01 mg/kg
3 | CCN1CCCC1CNC(=O)c1cc(S(N)(=O)=O)ccc1OC (stereo not shown) [Sulpiride] | – | > 100 mg/kg
4 | CCN1CCCC1CNC(=O)c1cc(S(=O)(=O)CC)ccc1OC (stereo not shown) [Sultopiride] | – | 18 mg/kg
